Tested on: Aβ42 production
Assay: Quantification of Aβ peptide in culture of neurons from rat fetus brain (Aβ ELISA)
Type: cell-based
Conditions: Neuron, 72 h; rat primary neuronal culture (cerebral cortex, embryonic day 18 Wistar rats); medium collected three days after addition of the compound; Aβx-42 ELISA; read-out: Aβ42 production reducing effect IC50
Protocol: Quantification of Aβ Peptide in Culture of Neurons from Rat Fetus Brain
(1) Rat Primary Neuronal Culture
Primary neuronal cultures were prepared from the cerebral cortex of embryonic day 18 Wistar rats (Charles River Japan, Yokohama, Japan). Specifically, the embryos were aseptically removed from pregnant rats under ether anesthesia. The brain was isolated from the embryo and immersed in an ice-cold L-15 medium (such as Invitrogen Corp. Cat #11415-064, Carlsbad, Calif., USA, or SIGMA L1518). The cerebral cortex was collected from the isolated brain under a stereoscopic microscope. The cerebral cortex fragments collected were enzymatically treated in an enzyme solution containing 0.25% trypsin (Invitrogen Corp. Cat #15050-065, Carlsbad, Calif., USA) and 0.01% DNase (Sigma D5025, St. Louis, Mo., USA) at 37° C. for 30 minutes to disperse the cells. Here, the enzymatic reaction was stopped by adding inactivated horse serum to the solution. The enzymatically treated solution was centrifuged at 1,500 rpm for five minutes to remove the supernatant. 5 to 10 mL of a medium was added to the resulting cell mass. Neurobasal medium (Invitrogen Corp. Cat #21103-049, Carlsbad, Calif., USA) supplemented with 2% B27 supplement (Invitrogen Corp. Cat #17504-044, Carlsbad, Calif., USA), 25 μM 2-mercaptoethanol (2-ME, WAKO Cat #139-06861, Osaka, Japan), 0.5 mM L-glutamine (Invitrogen Corp. Cat #25030-081, Carlsbad, Calif., USA), and Antibiotics-Antimycotics (Invitrogen Corp. Cat #15240-062, Carlsbad, Calif., USA) was used as the medium (Neurobasal/B27/2-ME). However, the above Neurobasal medium not supplemented with 2-ME (Neurobasal/B27) was used for the assay. The cells were redispersed by mild pipetting of the cell mass to which the medium was added. The cell dispersion was filtered through a 40-μm nylon mesh (Cell Strainer, Cat #35-2340, Becton Dickinson Labware, Franklin Lakes, N.J., USA) to remove the remaining cell mass, and thus a neuronal cell suspension was obtained. The neuronal cell suspension was diluted with the medium and then plated in a volume of 100 μL/well at an initial cell density of 5×10^5 cells/cm^2 in a 96-well polystyrene culture plate pre-coated with poly-L or D-lysine (Falcon Cat #35-3075, Becton Dickinson Labware, Franklin Lakes, N.J., USA coated with poly-L-lysine using the method shown below, or BIOCOAT™ cell environments Poly-D-lysine cell ware 96-well plate, Cat #35-6461, Becton Dickinson Labware, Franklin Lakes, N.J., USA). Poly-L-lysine coating was carried out as follows. 100 μg/mL of a poly-L-lysine (SIGMA P2636, St. Louis, Mo., USA) solution was aseptically prepared with a 0.15 M borate buffer (pH 8.5). […] of the solution was added to the 96-well polystyrene culture plate and incubated at room temperature for one or more hours or at 4° C. overnight or longer. Thereafter, the coated 96-well polystyrene culture plate was washed with sterile water four or more times, and then dried or rinsed with, for example, sterile PBS or medium, and used for cell plating. The plated cells were cultured in the culture plate at 37° C. in 5% CO2-95% air for one day. Then, the total amount of the medium was replaced with a fresh Neurobasal™/B27/2-ME medium, and then the cells were cultured for further three days.
The drug was added to the culture plate on Day 4 of culture as follows. The total amount of the medium was removed from the wells, and 180 μL/well of Neurobasal medium not containing 2-ME and containing 2% B-27 (Neurobasal/B27) was added thereto. A solution of the test compound in dimethyl sulfoxide (hereinafter abbreviated as DMSO) was diluted with Neurobasal/B27 to a concentration 10-fold higher than the final concentration. 20 μL/well of the dilution was added to and sufficiently mixed with the medium. The final DMSO concentration was 1% or less. Only DMSO was added to the control group.
The cells were cultured for three days after addition of the compound, and the total amount of the medium was collected. […]

NC1=N[C@@]2(c3cc(NC(=O)c4ncccc4F)ccc3F)CCCC[C@H]2CS1 [Example 259]
IC50: 372 nM

NC1=N[C@@]2(c3cc(NC(=O)c4ccc(OC(F)F)cn4)ccc3F)CO[C@H](CF)[C@H]2CS1 [Example 72, N-[3-((4aS,5,7aS)-2-amino-5-fluoromethyl-4a,5-dihydro-4H-furo[3,4-d][1,3]thiazin-7a-yl)-4-fluorophenyl]-5-difluoromethoxypyridine-2-carboxamide]
IC50: 2 nM

NC1=N[C@@]2(c3cc(NC(=O)c4ccc(C5CC5)cn4)ccc3F)CCC[C@H]2CS1 [Example 134]
IC50: 86 nM

NC1=N[C@@]2(c3cc(NC(=O)c4ccc(OCF)cn4)ccc3F)CCC[C@H]2CS1 (relative stereo) [Example 23, N-[3-((4aR*,7aS*)-2-amino-4a,5,6,7-tetrahydro-4H-cyclopenta[d][1,3]thiazin-7a-yl)-4-fluorophenyl]-5-fluoromethoxypyridine-2-carboxamide]
IC50: 10 nM

NC1=N[C@@]2(c3cc(NC(=O)c4cnc(OCCF)cn4)ccc3F)CCC[C@H]2CS1 (single isomer, unassigned) [Example 183, N-[3-((4aR*,7aS*)-2-amino-4a,5,6,7-tetrahydro-4H-cyclopenta[d][1,3]thiazin-7a-yl)-4-fluorophenyl]-5-(2-fluoroethoxy)-pyrazine-2-carboxamide]
IC50: 28 nM

C[C@H]1OC[C@]2(c3cc(NC(=O)c4cnc(OCF)cn4)ccc3F)N=C(N)SC[C@H]12 (relative stereo) [Example 57, N-[3-((4aS*,5R*,7aS*)-2-amino-5-methyl-4a,5-dihydro-4H-furo[3,4-d][1,3]thiazin-7a-yl)-4-fluorophenyl]-5-fluoromethoxypyrazine-2-carboxamide]
IC50: 3 nM

NC1=N[C@@]2(c3cc(NC(=O)c4ncccc4F)ccc3F)CCCCC[C@H]2CS1 [Example 251]
IC50: 120 nM

Cc1cccnc1C(=O)Nc1ccc(F)c([C@]23CCC[C@H]2CSC(N)=N3)c1 [Example 236]
IC50: 59 nM

CCCCO[C@H]1C[C@H]2CSC(N)=N[C@@]2(c2cc(NC(=O)c3ccc(C#N)cn3)ccc2F)C1 (relative stereo) [Example 109, (+)-N-[3-((4aR*,6S*,7aS*)-2-amino-6-butoxy-4a,5,6,7-tetrahydro-4H-cyclopenta[d][1,3]thiazin-7a-yl)-4-fluorophenyl]-5-cyanopyridine-2-carboxamide]
IC50: 1.8 nM

CO[C@@H]1CC[C@]2(c3cc(NC(=O)c4cnc(C(F)F)cn4)ccc3F)N=C(N)SC[C@@H]2C1 (relative stereo) [Example 207, N-[3-((4aR*,6R*,8aS*)-2-amino-6-methoxy-4,4a,5,6,7,8-hexahydrobenzo[d][1,3]thiazin-8a-yl)-4-fluorophenyl]-5-difluoromethylpyrazine-2-carboxamide]
IC50: 3 nM

NC1=N[C@@]2(c3cc(NC(=O)c4ccc(C(F)(F)F)cn4)ccc3F)CCC[C@H]2CS1 (single isomer, unassigned) [Example 169, N-[3-((4aR*,7aS*)-2-amino-4a,5,6,7-tetrahydro-4H-cyclopenta[d][1,3]thiazin-7a-yl)-4-fluorophenyl]-5-trifluoromethylpyridine-2-carboxamide]
IC50: 27 nM

CO[C@@H]1C[C@H]2CSC(N)=N[C@@]2(c2cc(NC(=O)c3cnc(OC(F)F)cn3)ccc2F)C1 (relative stereo) [Example 95]
IC50: 1 nM

CSc1cnc(C(=O)Nc2ccc(F)c([C@]34CCC[C@H]3CSC(N)=N4)c2)cn1 (single isomer, unassigned) [Example 135, N-[3-((4aR*,7aS*)-2-amino-4a,5,6,7-tetrahydro-4H-cyclopenta[d][1,3]thiazin-7a-yl)-4-fluorophenyl]-5-methylsulfanyl-pyrazine-2-carboxamide]
IC50: 15 nM

CO[C@H]1CC[C@]2(c3cc(NC(=O)c4cnc(C(F)F)cn4)ccc3F)N=C(N)SC[C@@H]2C1 [Example 205]
IC50: 25 nM

N#Cc1ccc(C(=O)Nc2ccc(F)c([C@]34COC[C@H]3CSC(N)=N4)c2)nc1 (relative stereo) [Example 24, N-[3-((4aS*,7aS*)-2-amino-4a,5-dihydro-4H-furo[3,4-d][1,3]thiazin-7a-yl)-4-fluorophenyl]-5-cyanopyridine-2-carboxamide]
IC50: 4.3 nM

N#Cc1ccc(C(=O)Nc2ccc(F)c([C@]34CCCC[C@H]3CSC(N)=N4)c2)nc1 (relative stereo) [Example 19, N-[3-((4aR*,8aS*)-2-amino-4,4a,5,6,7,8-hexahydrobenzo[d][1,3]thiazin-8a-yl)-4-fluorophenyl]-5-cyanopyridine-2-carboxamide]
IC50: 45 nM

NC1=N[C@@]2(c3cc(NC(=O)c4ncc(Br)cn4)ccc3F)CCCC[C@H]2CS1 [Example 120]
IC50: 38 nM

NC1=N[C@@]2(c3cc(NC(=O)c4cnc(OCF)cn4)ccc3F)CCOC[C@H]2CS1 (relative stereo) [Example 80, N-[3-((4aS*,8aS*)-2-amino-4a,5,7,8-tetrahydro-4H-6-oxa-3-thia-1-azanaphthalen-8a-yl)-4-fluorophenyl]-5-fluoromethoxypyrazine-2-carboxamide]
IC50: 8 nM

NC1=N[C@@]2(c3cc(NC(=O)c4cnc(Cl)cn4)ccc3F)CCCC[C@H]2CS1 (single isomer, unassigned) [Example 104, N-[3-((4aR*,8aS*)-2-amino-4,4a,5,6,7,8-hexahydrobenzo[d][1,3]thiazin-8a-yl)-4-fluorophenyl]-5-chloropyrazine-2-carboxamide]
IC50: 212 nM

CC[C@H]1OC[C@]2(c3cc(NC(=O)c4cnc(C(F)F)cn4)ccc3F)N=C(N)SC[C@H]12 (relative stereo) [Example 53, N-[3-((4aS*,5R*,7aS*)-2-amino-5-ethyl-4a,5-dihydro-4H-furo[3,4-d][1,3]thiazin-7a-yl)-4-fluorophenyl]-5-difluoromethylpyrazine-2-carboxamide]
IC50: 2 nM

N#Cc1ccc(C(=O)Nc2cc(Cl)cc([C@]34CCC[C@H]3CSC(N)=N4)c2)nc1 (racemic) [Example 240, (±)-N-[3-((4aR*,7aS*)-2-amino-4a,5,6,7-tetrahydro-4H-cyclopenta[d][1,3]thiazin-7a-yl)-5-chlorophenyl]-5-cyanopyridine-2-carboxamide]
IC50: 39 nM

Cc1cnc(C(=O)Nc2ccc(F)c([C@]34CCCC[C@H]3CSC(N)=N4)c2)cn1 [Example 117]
IC50: 158 nM

COc1ccc(NC(=O)c2ccc(Cl)cn2)cc1[C@]12CCC[C@H]1CSC(N)=N2 (racemic) [Example 34, (±)-N-[3-((4aR*,7aS*)-2-amino-4a,5,6,7-tetrahydro-4H-cyclopenta[d][1,3]thiazin-7a-yl)-4-methoxyphenyl]-5-chloropyridine-2-carboxamide]
IC50: 115 nM

CNC(=O)c1ccc(C(=O)Nc2ccc(F)c([C@]34CCC[C@H]3CSC(N)=N4)c2)nc1 [Example 127]
IC50: 214 nM

CO[C@@H]1C[C@H]2CSC(N)=N[C@@]2(c2cc(NC(=O)c3ccc(C#N)cn3)ccc2F)C1 (relative stereo) [Example 32, (+)-N-[3-((4aR*,6R*,7aS*)-2-amino-6-methoxy-4a,5,6,7-tetrahydro-4H-cyclopenta[d][1,3]thiazin-7a-yl)-4-fluorophenyl]-5-cyanopyridine-2-carboxamide]
IC50: 1.1 nM
